The record followed here is patent publication US11304892B2, “Alteromonas macleodii Dow02-2 and its metabolites for improving skin moisturization” (TCI Co., Ltd., priority 2018, dated 2022).

What all share (type): cell-based
What all share (details): HPEK-50 cells, 10 μg/ml, 6 hours, 37° C.

The test system of one assay is KRT14 gene. Nature of the assay: qPCR relative expression of KRT14 gene in human epidermal keratinocytes HPEK-50. The method, then:
(§1) The human epidermal keratinocytes HPEK-50 were cultured with a keratinocyte-SFM at 37° C. for 24 hours. Thereafter, the cells were divided into eight groups and respectively cultured with the following media at 37° C. for 6 hours: • 1. Control group: keratinocyte-SFM; • 2. “Supernatant” group: keratinocyte-SFM that was additionally added with 62.5 μg/ml of the supernatant obtained from [Preparation Example] B; • 3. “Fraction 1” group: keratinocyte-SFM that was additionally added with 62.5 μg/ml of the Fraction 1 obtained from [Preparation Example] C-1; • 4. “Fraction 2” group: keratinocyte-SFM that was additionally added with 62.5 μg/ml of the Fraction 2 obtained from [Preparation Example] C-1; • 5. […]
(§2) To investigate the effects of metabolites of Alteromonas macleodii Dow02-2 and 2-hydroxy-3-methylbutyric acid on moisturizing skin, inventors of the present invention collected the cells in each group of Example 1-1. […] Thereafter, the cDNA was subjected to a quantitative polymerase chain reaction (qPCR) by using a KAPA CYBR FAST qPCR kit (purchased from KAPA Biosystems) and ABI StepOne Plus™ System to determine the expression levels of moisturizing-related genes such as TGM1 gene, KRT1 gene, KRT10 gene, KRT14 gene, FLG gene, GBA gene and HAS3 gene in the cells of each group. […]
For orientation: Quantitative PCR measures a nucleic acid by following its amplification.

In the next assay the test system is KRT10 gene. Nature of the assay: qPCR relative expression of KRT10 gene in human epidermal keratinocytes HPEK-50. On the procedure:
as §1, §2

The test system of another assay is FLG gene. Nature of the assay: qPCR relative expression of FLG gene in human epidermal keratinocytes HPEK-50. The method, then:
as §1, §2

For the next assay, the system named is GBA gene. Nature of the assay: qPCR relative expression of GBA gene in human epidermal keratinocytes HPEK-50. On the procedure:
as §1, §2

For the next assay, the system named is TGM1 gene. Nature of the assay: qPCR relative expression of TGM1 gene in human epidermal keratinocytes HPEK-50. The method, then:
as §1, §2

Another assay has as its system HAS3 gene. Nature of the assay: qPCR relative expression of HAS3 gene in human epidermal keratinocytes HPEK-50. On the procedure:
as §1, §2

The subject of another assay is KRT1 gene. Nature of the assay: qPCR relative expression of KRT1 gene in human epidermal keratinocytes HPEK-50. The method, then:
as §1, §2

With `CC(C)C(O)C(=O)O` (stereo not shown) [2-hydroxy-3-methylbutyric acid], in the assay with KRT14 gene, the “increase of expression level of KRT14 gene in comparison with the control group” value came to 43%. The “increase of expression level of KRT10 gene in comparison with the control group” value with KRT10 gene was 158%. The “increase of expression level of FLG gene in comparison with the control group” value in the assay on FLG gene is given as 41%. The “increase of expression level of GBA gene in comparison with the control group” value in the assay on GBA gene was found to be 49%. Moreover, the “increase of expression level of TGM1 gene in comparison with the control group” value with TGM1 gene is listed as 26%. Besides, the “increase of expression level of HAS3 gene in comparison with the control group” value with HAS3 gene was found to be 97%. Besides, in the assay with KRT1 gene, the “increase of expression level of KRT1 gene in comparison with the control group” value was 29%.
